pIC50, pKi: −log10 of the molar value. Calls of active or inactive are those of the source. The calls are words filed in the database; no cut-off is given here.
Legend:
[1] = target: T1, 5-hydroxytryptamine receptor 7 (Homo sapiens, UniProt P34969); assay: Displacement of [3H]-5-CT from human 5-HT7 receptor expressed in HEK293 cells; type: cell-based
[2] = target: D(2) dopamine receptor (Homo sapiens, UniProt P14416); assay: Displacement of [3H]-Raclopride from human dopamine D2L receptor expressed in HEK293 cells; type: cell-based
[3] = target: T2, 5-hydroxytryptamine receptor 1A (Homo sapiens, UniProt P08908); assay: Displacement of [3H]-8-OH-DPAT from human 5-HT1A receptor expressed in HEK293 cells; type: cell-based
T2 sequence (P08908 whole entry): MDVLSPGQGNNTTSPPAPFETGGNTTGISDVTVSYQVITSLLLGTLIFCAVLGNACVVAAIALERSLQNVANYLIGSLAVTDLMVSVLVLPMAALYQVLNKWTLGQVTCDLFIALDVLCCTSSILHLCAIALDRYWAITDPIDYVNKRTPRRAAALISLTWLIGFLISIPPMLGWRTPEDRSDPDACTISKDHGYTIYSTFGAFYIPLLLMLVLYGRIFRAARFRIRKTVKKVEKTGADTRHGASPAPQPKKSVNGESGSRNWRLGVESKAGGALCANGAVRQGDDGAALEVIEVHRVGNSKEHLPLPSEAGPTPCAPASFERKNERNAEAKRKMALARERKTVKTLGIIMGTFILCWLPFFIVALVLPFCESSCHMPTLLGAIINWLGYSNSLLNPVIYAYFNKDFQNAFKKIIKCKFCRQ

[4] = species on record: Homo sapiens; assay: Selectivity ratio of Ki for human dopamine D2L receptor to Ki for human 5-HT7 receptor
[5] = species on record: Homo sapiens; assay: Selectivity ratio of Ki for human 5-HT1A receptor to Ki for human 5-HT7 receptor
[6] = target: T1, 5-hydroxytryptamine receptor 7; assay: Agonist activity at human 5-HT7 receptor expressed in HEK293 cells assessed as increase in cAMP level at 10 uM after 15 mins by HTRF assay; type: functional, cell-based
[7] = target: T1, 5-hydroxytryptamine receptor 7; assay: Antagonist activity at human 5-HT7 receptor expressed in HEK293 cells assessed as inhibition of 5-CT-induced cAMP production at 10 uM preincubated for 15 mins followed by 5-CT addition measured after 15 mins by HTRF assay; type: functional, cell-based
[8] = target: T1, 5-hydroxytryptamine receptor 7; type: functional, cell-based, HEK293
[9] = target: CYP3A4 (Homo sapiens, UniProt P08684); assay: Inhibition of recombinant human CYP3A4 assessed as remaining activity at 25 uM by luminescence -based microplate reader assay; type: ADME; conditions: read-out: Activity
[10] = test system: Liver microsome; assay: Retention time of the compound in recombinant human liver microsomes treated with 5-(4-fluorophenyl)-3-(2-hydroxy-3-(4-(2-methoxyphenyl)piperazin-1-yl)propyl)-5-methylimidazolidine-2,4-dione at 50 uM after 120 mins by UPLC-MS/MS analysis; type: ADME; conditions: 2 h
[11] = test system: Liver microsome; assay: Drug level in recombinant human liver microsomes treated with 5-(4-fluorophenyl)-3-(2-hydroxy-3-(4-(2-methoxyphenyl)piperazin-1-yl)propyl)-5-methylimidazolidine-2,4-dione at 50 uM after 120 mins by UPLC-MS/MS analysis; type: ADME; conditions: 2 h

T1 sequence (P34969 whole entry): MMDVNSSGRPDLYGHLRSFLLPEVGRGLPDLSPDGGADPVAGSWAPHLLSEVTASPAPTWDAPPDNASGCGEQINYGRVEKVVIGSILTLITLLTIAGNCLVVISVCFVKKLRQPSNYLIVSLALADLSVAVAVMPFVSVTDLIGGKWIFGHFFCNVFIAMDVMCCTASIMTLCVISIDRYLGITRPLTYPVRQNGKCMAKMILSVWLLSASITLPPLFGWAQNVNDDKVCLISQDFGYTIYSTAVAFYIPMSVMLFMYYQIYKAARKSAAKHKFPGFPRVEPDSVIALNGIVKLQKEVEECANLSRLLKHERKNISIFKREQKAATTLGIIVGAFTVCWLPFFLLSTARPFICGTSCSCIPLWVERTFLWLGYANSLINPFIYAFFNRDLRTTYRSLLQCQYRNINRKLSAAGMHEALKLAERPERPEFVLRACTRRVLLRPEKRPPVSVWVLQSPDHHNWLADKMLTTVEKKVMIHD
Sequence of D(2) dopamine receptor (P14416 whole entry): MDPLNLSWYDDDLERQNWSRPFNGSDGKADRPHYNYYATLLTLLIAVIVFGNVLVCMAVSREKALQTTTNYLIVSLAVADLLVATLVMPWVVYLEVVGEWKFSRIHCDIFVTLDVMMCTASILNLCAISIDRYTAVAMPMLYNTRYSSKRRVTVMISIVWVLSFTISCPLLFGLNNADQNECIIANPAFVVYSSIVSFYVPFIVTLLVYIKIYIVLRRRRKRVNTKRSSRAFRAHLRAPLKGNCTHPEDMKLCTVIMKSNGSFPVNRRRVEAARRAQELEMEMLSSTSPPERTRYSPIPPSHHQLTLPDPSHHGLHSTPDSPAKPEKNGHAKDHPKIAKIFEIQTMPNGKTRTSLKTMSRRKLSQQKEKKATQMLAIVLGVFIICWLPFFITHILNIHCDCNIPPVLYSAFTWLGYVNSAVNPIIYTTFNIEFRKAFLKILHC
Sequence of CYP3A4 (P08684 whole entry): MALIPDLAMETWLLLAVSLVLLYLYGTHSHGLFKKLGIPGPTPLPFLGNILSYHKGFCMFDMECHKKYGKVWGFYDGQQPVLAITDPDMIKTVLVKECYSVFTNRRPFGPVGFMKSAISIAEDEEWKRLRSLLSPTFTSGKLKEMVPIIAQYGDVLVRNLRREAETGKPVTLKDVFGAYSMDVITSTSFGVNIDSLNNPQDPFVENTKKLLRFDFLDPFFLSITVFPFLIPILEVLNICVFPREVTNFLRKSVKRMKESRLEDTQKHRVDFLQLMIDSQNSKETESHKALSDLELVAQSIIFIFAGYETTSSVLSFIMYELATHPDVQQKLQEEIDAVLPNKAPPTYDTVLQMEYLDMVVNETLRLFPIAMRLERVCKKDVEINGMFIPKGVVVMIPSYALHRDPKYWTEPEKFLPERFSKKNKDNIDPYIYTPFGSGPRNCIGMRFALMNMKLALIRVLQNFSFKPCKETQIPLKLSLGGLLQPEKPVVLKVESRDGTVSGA

Structure (SMILES) | pKi [1] | pKi [2] | pKi [3] | Ratio Ki [4] | Ratio Ki [5] | Activity [6] | inhibition [7] | pIC50 [8] | activity at 25 µM [9] | Retention_time [10] | Drug metabolism [11]
CC1(c2ccc(F)cc2)NC(=O)N(CC(O)CN2CCN(c3ccc(Cl)cc3)CC2)C1=O (centres undefined) | 6.04 | 5.37 | 5.28 | 5 | 6 | inactive | 16% | – | – | – | –
CC1(c2ccc(F)cc2)NC(=O)N(CC(O)CN2CCN(c3ccccc3Cl)CC2)C1=O (centres undefined) | 7.33 | 6.08 | 6.40 | 18 | 8 | inactive | 30% | – | – | – | –
CC1(c2ccc(F)cc2)NC(=O)N(CC(O)CN2CCN(c3ccccc3C#N)CC2)C1=O (centres undefined) | 7.85 | 6.03 | 6.50 | 67 | 23 | inactive | – | 6.46 | – | – | –
CC1(c2ccc(F)cc2)NC(=O)N(CC(O)CN2CCN(c3ccccc3)CC2)C1=O (centres undefined) | 6.65 | 5.54 | 5.56 | 13 | 12 | inactive | 18% | – | – | – | –
COc1ccccc1N1CCN(CC(O)CN2C(=O)NC(C)(c3ccc(F)cc3)C2=O)CC1 (centres undefined) | – | – | – | – | – | – | – | – | 50% | – | –
CC1(c2ccc(F)cc2)NC(=O)N(CC(O)CN2CCN(c3ccc(Cl)c(Cl)c3)CC2)C1=O (centres undefined) | 6.85 | 5.70 | 6.09 | 14 | 6 | inactive | – | 4.62 | – | – | –
CC1(c2ccc(F)cc2)NC(=O)N(CC(O)CN2CCN(c3ccccc3F)CC2)C1=O (centres undefined) | 6.63 | 5.77 | 5.78 | 7 | 7 | inactive | 6% | – | – | – | –
Cc1ccc(C)c(N2CCN(CC(O)CN3C(=O)NC(C)(c4ccc(F)cc4)C3=O)CC2)c1 (centres undefined) | 7.25 | 5.74 | 5.88 | 32 | 23 | inactive | – | 6.00 | – | – | –
COc1cccc(N2CCN(CC(O)CN3C(=O)NC(C)(c4ccc(F)cc4)C3=O)CC2)c1 (centres undefined) | 7.05 | 5.29 | 5.53 | 58 | 33 | inactive | – | 5.23 | – | – | –
CC1(c2ccc(F)cc2)NC(=O)N(CC(O)CN2CCN(c3ccc(F)cc3)CC2)C1=O (centres undefined) | 6.08 | 5.25 | 5.16 | 7 | 8 | inactive | 12% | – | – | – | –
CC1(c2ccc(F)cc2)NC(=O)N(CC(O)CN2CCN(c3ccc(F)cc3F)CC2)C1=O (centres undefined) | 5.92 | 5.17 | 5.04 | 4 | 8 | inactive | 9% | – | – | – | –
NCCc1c[nH]c2ccc(C(N)=O)cc12 | – | – | – | – | – | Active | – | – | – | – | –
CC1(c2ccc(F)cc2)NC(=O)N(CC(O)CN2CCN(C(c3ccccc3)c3ccccc3)CC2)C1=O (centres undefined) | – | – | – | 3 | 71 | inactive | – | 5.74 | – | – | –
Cc1ccc(N2CCN(CC(O)CN3C(=O)NC(C)(c4ccc(F)cc4)C3=O)CC2)cc1C (centres undefined) | 6.75 | 5.65 | 6.00 | 13 | 6 | inactive | 19% | – | – | – | –
CCOc1ccccc1N1CCN(CC(O)CN2C(=O)NC(C)(c3ccc(F)cc3)C2=O)CC1 (centres undefined) | 8.00 | 6.90 | 7.01 | 13 | 10 | inactive | – | 7.09 | – | – | –
CC1(c2ccc(F)cc2)NC(=O)N(CC(O)CN2CCN(c3cccc(Cl)c3Cl)CC2)C1=O (centres undefined) | 7.77 | 6.52 | 7.23 | 18 | 3 | inactive | – | 5.86 | – | – | –
CC1(c2ccc(F)cc2)NC(=O)N(CC(O)CN2CCN(c3ccccc3O)CC2)C1=O (centres undefined) | – | – | – | – | – | – | – | – | – | 3.77 min | metabolite_detected
